Results from publication PMC7442609 (ACS chemical biology, 2020).
Like-named read-outs stand apart in the source and are kept apart here. Peptide text beside a SMILES is read from it. * marks the point of attachment. Cbz = O=C(OCc1ccccc1)*

Columns and labels:
proteasomes = molecular target: T1, proteasomes (Mus musculus, UniProt O55234+P70195+Q60692); experiment: Ub-R-GFP reporter assay of proteasomal activity in cells; type: cell-based, murine
T1 sequence (O55234 60-264): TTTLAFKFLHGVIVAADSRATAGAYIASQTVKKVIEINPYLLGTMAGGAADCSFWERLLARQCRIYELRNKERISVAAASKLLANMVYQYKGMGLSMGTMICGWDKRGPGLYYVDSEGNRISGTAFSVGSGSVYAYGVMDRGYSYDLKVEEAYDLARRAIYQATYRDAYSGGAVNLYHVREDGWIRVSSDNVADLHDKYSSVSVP
T1 sequence (Q60692 1-238): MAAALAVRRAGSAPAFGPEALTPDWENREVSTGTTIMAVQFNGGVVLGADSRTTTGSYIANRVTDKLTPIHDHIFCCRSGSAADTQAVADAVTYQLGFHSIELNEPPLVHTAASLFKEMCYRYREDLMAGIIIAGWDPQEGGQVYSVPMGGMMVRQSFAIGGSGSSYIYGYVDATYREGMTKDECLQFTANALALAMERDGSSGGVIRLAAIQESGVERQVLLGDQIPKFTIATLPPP
T1 sequence (P70195 44-277): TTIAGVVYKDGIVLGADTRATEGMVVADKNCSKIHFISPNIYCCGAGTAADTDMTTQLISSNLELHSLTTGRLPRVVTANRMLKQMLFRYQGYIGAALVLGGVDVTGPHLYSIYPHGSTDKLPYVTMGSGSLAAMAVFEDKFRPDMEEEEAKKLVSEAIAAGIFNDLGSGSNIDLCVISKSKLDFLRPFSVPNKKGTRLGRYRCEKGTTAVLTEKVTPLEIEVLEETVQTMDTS

[1] = tested on: luxBCADE-expressing H37Rv Mtb in THP-1 cells; type: cell-based, Mycobacterium tuberculosis; details: for effect of WRT on anti-Mtb activity in macrophages: THP-1 cells, + WRT (15 μM), 7 days
Mtb H37Rv = experiment: Resazurin microtiter assay; type: cell-based, Mycobacterium tuberculosis
RAW-Difluo mLC3 cells = experiment: RAW-Difluo mLC3 autophagy reporter assay; type: cell-based, murine; details: 16 hours
20S proteasome = 20S proteasome (Homo sapiens, UniProt P28072+P28074+Q99436); experiment: Proteasome-Glo assay on purified 20S proteasome; type: biochemical; details: 1 hr; for IC50 caspase-like activity / IC50 chymotrypsin-like activity / IC50 trypsin-like activity: purified 20S proteasome
[2] = tested on: RFP-LC3-THP-1 cells infected with Mtb; type: cell-based, human; details: 16 hr at 10 μM, TSR 2.5 μM
FoxM1 = type: cell-based, murine; details: 5 μM, 16 hours, western blot
THP-1 cells = type: cell-based, human; details: uninfected THP-1 cells
PINK1 = type: cell-based, murine; details: 5 μM, 16 hr, western blot
Parkin = type: cell-based, murine; details: 5 μM, 16 hr, western blot
EIF-2α = type: cell-based, murine; details: 5 μM, 16 hours, western blot

Compound | inhibition of intracellular Mtb growth [1] | effect of WRT on anti-Mtb activity in macrophages [1] | induction of autophagy (in words) (RAW-Difluo mLC3 cells) | autophagosomes (RFP-LC3 puncta) per Mtb infected cell [2] | FoxM1 protein levels (FoxM1) | also measured
C=C(NC(=O)C(=C)NC(=O)c1csc(C2=N[C@@H]3c4csc(n4)[C@H]4NC(=O)c5csc(n5)[C@H]([C@](C)(O)[C@@H](C)O)NC(=O)[C@H]5CSC(=N5)/C(=C/C)NC(=O)[C@H]([C@@H](C)O)NC(=O)c5csc(n5)[C@]3(CC2)NC(=O)[C@H](C)NC(=O)C(=C)NC(=O)[C@H](C)NC(=O)[C@H]([C@@H](C)CC)N[C@@H]2C=Cc3c([C@H](C)O)cc(nc3[C@H]2O)C(=O)O[C@@H]4C)n1)C(N)=O [TSR, thiostrepton] | potent inhibitory effects on intracellular Mtb growth | no significant effect on their anti-Mtb activity in macrophages | potently induced autophagy | significantly increased the number of RFP-LC3 puncta per cell | significant decrease in FoxM1 protein levels | EC50 (proteasomes): 1.45 µM; activity against Mtb in vitro (REMA, in words) (Mtb H37Rv): active against Mtb in vitro at IC50s comparable to kanamycin; direct inhibition of reconstituted 20S proteasome (20S proteasome): directly inhibited the proteasome; IC50 caspase-like activity (20S proteasome): substantially less active; IC50 chymotrypsin-like activity (20S proteasome): sub-micromolar; IC50 trypsin-like activity (20S proteasome): sub-micromolar
COC[C@H]1OC(=O)c2coc3c2[C@@]1(C)C1=C(C3=O)[C@@H]2CCC(=O)[C@@]2(C)C[C@H]1OC(C)=O [WRT, wortmannin, reference compound] | – | – | – | < 5 | – | effect on thiopeptide-induced autophagy (THP-1 cells): abrogates thiopeptide-induced autophagy
CC(C)C[C@@H](C=O)NC(=O)[C@H](CC(C)C)NC(=O)[C@H](CC(C)C)NC(=O)OCc1ccccc1 [MG-132] (Cbz-Leu-Leu-Leu-aldehyde) | – | – | – | – | significant decrease in FoxM1 protein levels | PINK1 expression level (PINK1): little to no increase over basal levels; Parkin expression level (Parkin): little to no increase over basal levels
C=C(NC(=O)c1csc(-c2nc3c(cc2O)-c2nc(cs2)C(=O)NC(C(C)O)C(=O)N/C(=C\C)c2nc(cs2)C(=O)NC2CC(O)C(=O)OCc4cccc5[nH]c(c(C)c45)C(=O)SCC(NC(=O)c4csc2n4)c2nc-3cs2)n1)C(N)=O (stereo not drawn) [NOS, nosiheptide] | potent inhibitory effects on intracellular Mtb growth | no significant effect on their anti-Mtb activity in macrophages | induced autophagy at concentrations comparable to TSR | significantly increased the number of RFP-LC3 puncta per cell | no effect on FoxM1 levels | EC50 (proteasomes): 0.38 µM; activity against Mtb in vitro (REMA, in words) (Mtb H37Rv; Mtb H37Rv in culture, 4 days): active against Mtb in vitro at IC50s comparable to kanamycin; direct inhibition of reconstituted 20S proteasome (20S proteasome): directly inhibited the proteasome; IC50 caspase-like activity (20S proteasome): low micromolar; IC50 chymotrypsin-like activity (20S proteasome): low micromolar; IC50 trypsin-like activity (20S proteasome): low micromolar
C=C(NC(=O)C(=C)NC(=O)c1ccc2c(n1)-c1coc(n1)C(=C)NC(=O)C(=C)NC(=O)c1nc(oc1C)C(=C)NC(=O)C(C(C)(C)O)NC(=O)C(=C)NC(=O)c1nc(oc1C)/C(=C/C)NC(=O)C(C(C)O)NC(=O)c1csc-2n1)C(N)=O (stereo not drawn) [BER, berninamycin] | – | – | also induced autophagy | – | – | –
C=C(NC(=O)C(=C)NC(=O)c1csc(-c2ccc3c(n2)-c2csc(n2)-c2csc(n2)C2C(C)CC(O)N2C(=O)C(Cc2ccc(O)cc2)N=C(O)C2CSC(=N2)C(Cc2ccccc2)N=C(O)c2csc(n2)C(CC(N)=O)N=C(O)c2nc-3oc2C)n1)C(=O)O (stereo not drawn) [GE, GE37468] | – | – | induced autophagy at concentrations comparable to TSR | – | – | –
thiocillin III [TCIII] | potent inhibitory effects on intracellular Mtb growth | no significant effect on their anti-Mtb activity in macrophages | also induced autophagy | significantly increased the number of RFP-LC3 puncta per cell | – | EIF-2α phosphorylation (EIF-2α): led to EIF-2α phosphorylation; activity against Mtb in vitro (REMA, in words) (Mtb H37Rv; Mtb H37Rv in culture, 4 days): active against Mtb in vitro at IC50s comparable to kanamycin; EC50 (RAW-Difluo mLC3 cells; read-out: EC50 induction of autophagy (RFP-LC3 puncta per cell)): 0.09 µM
